Source: patent US10314883B2, “Compositions and methods for regulating blood pressure” (University of Virginia Patent Foundation, priority 2015, dated 2019)
Like-named read-outs stand apart in the source and are kept apart here.

Tested on: thoracodorsal arteries (TDA)
Assay: Pressure myography of TDAs electroporated with Panx1 WT or YLK>AAA plasmid
Type: cell-based, mouse
Details: for EC50: Mus musculus, read-out: EC50 of phenylephrine-induced constriction
Procedure: The contractile responses of pressurized thoracodorsal arteries (TDA) were measured as previously described. Briefly, TDA were isolated and placed in cold Krebs-HEPES until cannulation in a pressure arteriograph (Danish MyoTechnology). After a 30 minute equilibration period, cumulative concentrations of contractile agonists were applied to the TDA pressurized at 80 mmHg, and the vessel was visualized with an Olympus IX-71 microscope attached to a Hamamatsu EM-CCD camera coupled to Slidebook imaging software. […] Lastly, maximal diameter was measured at the end of each experiment in calcium-free Krebs-HEPES supplemented with EGTA (1 mmol/L) and sodium nitroprusside (10 μmol/L). In cases where the vessels were not constricting to the contractile agonist, their viability was assessed by applying 40 mM KCl and only TDA reaching 30% of the maximal diameter were considered for analysis. The contractile responses, as well as the basal tone, are expressed as a percentage of the maximal diameter.
Vessel transfection was performed as previously described by us. Briefly, after isolation, TDA were placed in cold, sterile RPMI supplemented with penicillin […] (Gibco), CaCl2 (2 mmol/L) and 1% BSA. Vessels were transferred to a cuvette containing 100 μL of Nucleofector solution (Lonza) containing 5 μg of plasmid, and subjected to electroporation. Arteries were then placed in supplemented RPMI media in an incubator for 14 to 18 hours until cannulation in the pressure arteriograph as described above.
We further tested the importance of the YLK sequence within the intracellular loop of Panx1 on phenylephrine-induced vasoconstriction using rescue experiments with intact arteries from mice lacking endogenous Panx1. We reintroduced Panx1 into the SMCs of TDAs from Cre^+/Panx1^F1 mice that had received tamoxifen by selectively transfecting these cells with a plasmid encoding Panx1^WT.

[1] = TDAs from Cre^+/Panx1^FL with tamoxifen + Panx1^WT
[2] = TDAs from Cre^+/Panx1^FL with tamoxifen + Panx1^YLK>AAA
[3] = TDAs from Cre^+/Panx1^FL with tamoxifen, electroporated without plasmid
[4] = TDAs from Cre^+/Panx1^FL, no tamoxifen, electroporated without plasmid

CNC[C@H](O)c1cccc(O)c1 [Phenylephrine, phenylephrine]
EC50 [1]: 450 ± 330 nM | EC50 [2]: 630 ± 530 nM | EC50 [3]: 1130 ± 770 nM | EC50 [4]: 640 ± 230 nM | EMAX of phenylephrine-induced constriction [1]: 34.2 ± 6.15 percentage of maximal diameter | EMAX of phenylephrine-induced constriction [2]: 56.9 ± 5.84 percentage of maximal diameter | EMAX of phenylephrine-induced constriction [3]: 57.5 ± 9.20 percentage of maximal diameter | EMAX of phenylephrine-induced constriction [4]: 32.9 ± 4.85 percentage of maximal diameter
